Results published in PubChem BioAssay (NCI).
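The concentration for 50% growth inhibition is given as GI50. TGI marks complete inhibition of growth.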

Legend:
Test in all cases: NCI-60 cell line screen, 384-well format
[1] = system: MCF7 breast
[2] = system: T-47D breast
[3] = system: NCI/ADR-RES ovarian
[4] = system: COLO 205 colon
[5] = system: PC-3 prostate
[6] = system: KM12 colon
[7] = system: OVCAR-3 ovarian
[8] = system: CAKI-1 renal
[9] = system: SF-268 CNS
[10] = system: HOP-62 NSCLC
[11] = system: MOLT-4 leukemia
[12] = system: SNB-75 CNS
[13] = system: SW-620 colon
[14] = system: MALME-3M melanoma
[15] = system: TK-10 renal
[16] = system: HL-60(TB) leukemia
[17] = system: MDA-MB-231 breast
[18] = system: UACC-257 melanoma
[19] = system: HOP-92 NSCLC
[20] = system: MDA-MB-468 breast
[21] = system: M14 melanoma
[22] = system: NCI-H23 lung
[23] = system: SK-OV-3 ovarian
[24] = system: HS 578T breast
[25] = system: HCC-2998 colon
[26] = system: SN12C renal
[27] = system: RPMI-8226 leukemia
[28] = system: OVCAR-8 ovarian
[29] = system: CCRF-CEM leukemia
[30] = system: K-562 leukemia
[31] = system: SF-295 CNS
[32] = system: OVCAR-5 ovarian
[33] = system: OVCAR-4 ovarian
[34] = system: NCI-H522 lung
[35] = system: HCT-116 colon
[36] = system: HCT-15 colon
[37] = system: SR leukemia
[38] = system: SNB-19 CNS
[39] = system: NCI-H460 NSCLC
[40] = system: LOX IMVI melanoma
[41] = system: DU-145 prostate
[42] = system: IGROV1 ovarian
[43] = system: NCI-H226 lung
[44] = system: RXF 393 renal
[45] = system: SK-MEL-28 melanoma
[46] = system: NCI-H322M lung
[47] = system: BT-549 breast

CCc1c(C#N)c(SC(C(N)=O)c2ccccc2)nc(N2CCC(N)CC2)c1C#N (centres undefined)
GI50 [1]: 5.36 µM | TGI [1]: 17.7 µM | GI50 [2]: 14.8 µM | TGI [2]: 28 µM | GI50 [3]: 66.6 µM | TGI [3]: > 100 µM | GI50 [4]: 3.42 µM | TGI [4]: 17.4 µM | GI50 [5]: 11.2 µM | TGI [5]: 23.4 µM | GI50 [6]: 11.2 µM | TGI [6]: 23.4 µM | GI50 [7]: 0.44 µM | TGI [7]: 6.5 µM | GI50 [8]: 13 µM | TGI [8]: 25.8 µM | GI50 [9]: 13.5 µM | TGI [9]: 26.4 µM | GI50 [10]: 4.92 µM | TGI [10]: 16.3 µM | GI50 [11]: 4.95 µM | TGI [11]: 15.4 µM | GI50 [12]: 14.9 µM | TGI [12]: 28.2 µM | GI50 [13]: 14.7 µM | TGI [13]: 28.1 µM | GI50 [14]: 4.17 µM | TGI [14]: 16.9 µM | GI50 [15]: 17.5 µM | TGI [15]: 31.4 µM | GI50 [16]: 2.29 µM | TGI [16]: 9.95 µM | GI50 [17]: 16.2 µM | TGI [17]: 29.8 µM | GI50 [18]: 2.22 µM | TGI [18]: 5.18 µM | GI50 [19]: 13 µM | TGI [19]: 25.7 µM | GI50 [20]: 8.13 µM | TGI [20]: 20.4 µM | GI50 [21]: 10.4 µM | TGI [21]: 22.2 µM | GI50 [22]: 11.5 µM | TGI [22]: 23.7 µM | GI50 [23]: 17.9 µM | TGI [23]: 31.9 µM | GI50 [24]: 14.4 µM | TGI [24]: 27.6 µM | GI50 [25]: 8.72 µM | TGI [25]: 20.9 µM | GI50 [26]: 11.5 µM | TGI [26]: 23.7 µM | GI50 [27]: 0.201 µM | TGI [27]: 1.38 µM | GI50 [28]: 15.6 µM | TGI [28]: 29.1 µM | GI50 [29]: 6.52 µM | TGI [29]: 19 µM | GI50 [30]: 5.63 µM | TGI [30]: 18.3 µM | GI50 [31]: 13.2 µM | TGI [31]: 26 µM | GI50 [32]: 16.1 µM | TGI [32]: 29.6 µM | GI50 [33]: 13.7 µM | TGI [33]: 26.6 µM | GI50 [34]: 8.33 µM | TGI [34]: 20.9 µM | GI50 [35]: 1.84 µM | TGI [35]: 14.5 µM | GI50 [36]: 17.3 µM | TGI [36]: 31.3 µM | GI50 [37]: 3.45 µM | TGI [37]: 11.8 µM | GI50 [38]: 13.9 µM | TGI [38]: 27 µM | GI50 [39]: 11.2 µM | TGI [39]: 23.5 µM | GI50 [40]: 11.4 µM | TGI [40]: 23.7 µM | GI50 [41]: 3.33 µM | TGI [41]: 12.4 µM | GI50 [42]: 15 µM | TGI [42]: 28.3 µM | GI50 [43]: 12.4 µM | TGI [43]: 25 µM | GI50 [44]: 16.2 µM | TGI [44]: 29.8 µM | GI50 [45]: 7.46 µM | TGI [45]: 20.1 µM | GI50 [46]: 15.9 µM | TGI [46]: 29.4 µM | GI50 [47]: 10.3 µM | TGI [47]: 22.1 µM
